One data set has as its system B. subtilis (ATCC 6057). Nature of the data set: Antibacterial activity. The data set is classed as cell-based.
The subject of data set [1] is methicillin-resistant S. aureus (ATCC BAA-1762). Nature of the data set: Antibacterial activity. It is filed as cell-based.
The subject of data set [2] is M. tuberculosis (H37Rv). Nature of the data set: Antibacterial activity. The data set is classed as cell-based.
Data set [3] relates to methicillin-resistant S. aureus (ATCC BAA-1762). The experiment in a line: Growth rescue: MIC with exogenous MK4, MRSA. The settings on record: exogenous 10 μg/mL MK4 added to the synthetic growth media. The data set is classed as cell-based.
Data set [4] relates to M. tuberculosis (H37Rv). Nature of the data set: Growth rescue: MIC with exogenous MK4, M. tuberculosis. It is filed as cell-based. The settings on record: exogenous 10 μg/mL MK4 added to the synthetic growth media.
Data set [5] concerns Vero (monkey kidney epithelial) cells. The experiment in a line: Cytotoxicity, Trypan Blue. The settings on record: minimum concentration giving ~90% cell death. It is filed as cell-based.
For data set [6], the system named is menaquinone levels in S. aureus. The experiment in a line: Quantification of menaquinone levels by LC-MS/MS. It is filed as cell-based.
For data set [7], the system named is B. subtilis, MRSA and M. tuberculosis. Nature of the data set: Antibacterial activity. As to conditions: summary in text over B. subtilis, MRSA (S. aureus). It is filed as cell-based.
The next data set concerns E. coli (K-12). The experiment in a line: Antibacterial activity. As to conditions: aerobic, MIC-99 by visual inspection.
The target in a further data set is ecMenE (wild-type) (Escherichia coli, UniProt P37353). The experiment in a line: Isothermal titration calorimetry, wild-type ecMenE. As to conditions: ITC, wt ecMenE. On the technique in general: In ITC the heat of successive injections is recorded.
Sequence of ecMenE (wild-type) (P37353 whole entry): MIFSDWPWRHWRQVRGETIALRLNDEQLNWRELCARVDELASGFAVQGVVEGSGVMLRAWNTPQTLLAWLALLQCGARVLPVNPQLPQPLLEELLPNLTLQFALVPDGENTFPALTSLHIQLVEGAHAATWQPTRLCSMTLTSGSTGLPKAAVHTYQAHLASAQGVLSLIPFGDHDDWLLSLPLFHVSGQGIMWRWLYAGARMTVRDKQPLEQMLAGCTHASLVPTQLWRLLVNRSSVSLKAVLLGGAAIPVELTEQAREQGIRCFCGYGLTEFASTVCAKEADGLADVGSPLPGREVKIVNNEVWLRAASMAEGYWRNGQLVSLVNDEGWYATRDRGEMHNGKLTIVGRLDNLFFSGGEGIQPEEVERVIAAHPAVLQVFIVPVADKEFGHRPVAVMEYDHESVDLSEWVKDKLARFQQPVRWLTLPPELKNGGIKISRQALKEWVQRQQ
The next data set deals with E. coli MenE (ecMenE) (Escherichia coli, UniProt P37353). It is filed as biochemical.
Sequence of E. coli MenE (ecMenE) (P37353 whole entry): as above
The next data set is described as follows: pKa of the OSB analogue. The settings on record: pKa of the OSB analogue (side chain).

One may read the MIC as the lowest concentration found to suppress growth. As usually defined, the Kd is the concentration at which binding is half-saturated. The pKa is the pH at which an ionisable group is half protonated. One may read the Km as the concentration of substrate that gives half-maximal velocity. Usually kcat stands for the number of substrate molecules converted per active site and unit of time at saturation.

Converted amounts (≈) assume the structure as drawn.

Consider `Nc1ncnc2c1ncn2[C@@H]1O[C@H](COS(=O)(=O)NC(=O)CCC(=O)c2ccccc2C(=O)O)[C@@H](O)[C@H]1O` [compound 1, OSB-AMS], for which the minimal inhibitory concentration (MIC) in the data set on B. subtilis (ATCC 6057) was 62.5 µg/mL (≈ 114 µM); in data set [1] (MRSA (ATCC BAA-1762)), 31.25 µg/mL (≈ 56.8 µM); against M. tuberculosis (H37Rv) [2], 125 µg/mL (≈ 227 µM); in data set [7] it was 30 to 125 µg/mL; in the data set with E. coli (K-12), over 500 µg/mL. In data set [1] (antibacterial activity vs enzyme IC50), the “antibacterial activity lower than the IC50 for enzyme inhibition” value is ~ 1000 fold. Moreover, the “MIC + MK4” value (in [3]; in the data set on M. tuberculosis (H37Rv) [4]) was over 250 µg/mL each time. This molecule returned a Cytotoxicity in [5] of 125 µg/mL. Moreover, the “decrease in MK levels” value in data set [6] (MRSA, 15.6 μM OSB-AMS (half-MIC)) is ~ 60%. For the same molecule, the “decrease in the levels of all menaquinones” value in data set [6] (S. aureus treated with OSB-AMS below its MIC) is 3–5 fold. On ecMenE (wild-type), this molecule showed a ΔG of -10.0 kcal/mol. This molecule also displayed a ΔH on ecMenE (wild-type) of -2.0 ± 0.1 kcal/mol. Besides, at ecMenE (wild-type) (read-out: Kd OSB-AMS), the dissociation constant Kd came to 44 ± 11 nM.

As for MSB-AMS [compound 2], on E. coli MenE (ecMenE), the “effect on MenE activity” value is “did not affect MenE activity” and the “inhibition of ecMenE” value is listed as “no inhibition”. The pKa in the data set “pKa of the OSB analogue” is recorded as 4.

For the molecule `O=C(O)CCC(=O)c1ccccc1C(=O)O` [OSB, o-succinylbenzoate], at E. coli MenE (ecMenE) (read-out: KM OSB, wt ecMenE, pH 7.4, 25°C), the Michaelis-Menten constant (Km) was found to be 1 ± 0.02 µM. Further, the kcat at E. coli MenE (ecMenE) (wt ecMenE, substrate OSB) was 0.767 ± 0.002 s⁻¹.

These data come from paper PMC4624480 (Biochemistry, 2015).
